Reference: ChEMBL document CHEMBL1130947, “Tight-binding streptavidin ligands from a cyclic peptide library” (Bioorg Med Chem Lett, 1998)
Positions of bridges follow the written chain, without caps; N, C: chain ends. Residues, ends and D or L forms follow the SMILES beside them.

Experiment: The compound was tested for inhibition of streptavidin binding to the TentaGel-bound Ac-HPQFG peptide

C[C@@H]1NC(=O)CC[C@@H](C(=O)N[C@@H](CCCCN)C(N)=O)NC(=O)[C@H](C)NC(=O)[C@@H]2CCCN2C(=O)[C@H](Cc2ccccc2)NC(=O)[C@H](CCC(N)=O)NC(=O)[C@@H]2CCCN2C(=O)[C@H](Cc2c[nH]cn2)NC1=O (AHPQFPAEK-NH2; lactam N-8)
IC50: 0.128 µM

Ac-AHPQFPAEK-NH2
IC50: 136 µM

C[C@@H]1NC(=O)CC[C@@H](C(=O)N[C@@H](CCCCN)C(N)=O)NC(=O)[C@H](C)NC(=O)[C@H](Cc2ccccc2)NC(=O)[C@H](Cc2c[nH]cn2)NC(=O)CNC(=O)[C@H](Cc2ccc(O)cc2)NC(=O)[C@H](CCC(N)=O)NC1=O (AQYGHFAEK-NH2; lactam N-8)
IC50: > 5000 µM

Ac-AHPQFGAEK-NH2
IC50: 204 µM

CC[C@H](C)[C@H](NC(=O)[C@H]1CSSC[C@H](NC(=O)[C@H](CCC(=O)O)NC(=O)[C@H](C)N)C(=O)N[C@@H](Cc2c[nH]cn2)C(=O)N2CCC[C@H]2C(=O)N[C@@H](CCC(N)=O)C(=O)NCC(=O)N2CCC[C@H]2C(=O)N2CCC[C@H]2C(=O)N1)C(=O)N[C@@H](CCC(=O)O)C(=O)NCC(=O)N[C@@H](CCCN=C(N)N)C(=O)N[C@@H](CCCCN)C(N)=O
IC50: 0.73 µM

C[C@@H]1NC(=O)CNC(=O)[C@H](Cc2ccccc2)NC(=O)[C@H](CCC(N)=O)NC(=O)[C@@H]2CCCN2C(=O)[C@H](Cc2c[nH]cn2)NC(=O)[C@H](C)NC(=O)CC[C@@H](C(=O)N[C@@H](CCCCN)C(N)=O)NC1=O (AHPQFGAEK-NH2; lactam N-8)
IC50: 19 µM
